Test results: PMC6271273, “Chemo-Enzymatic Synthesis of Silybin and 2,3-Dehydrosilybin Dimers” (Molecules, 2014)
Several values for one entry are separate records, joined by “and”; a condition that tells them apart may be missing. Equal values may be shown once. Marks after values point to notes of the source that are not given here.

Columns and labels:
[1] = DPPH radical scavenging assay; type: biochemical; conditions: for IC50: 20 µM DPPH, 30 min; for DPPH [% of inhibition]: 33 µM test compound, n = 4, absorbance at 517 nm after 30 min
Description: Antiradical activity was evaluated spectrophotometrically as the ability of the tested substances to reduce the 1,1-diphenyl-2-picrylhydrazyl (DPPH) radical as described previously with minor modifications. Briefly, a solution of the tested substance (10 µL, final concentration 0–540 µM) were mixed with a freshly prepared methanolic DPPH solution (290 µL, final concentration 20 µM) in a microtiter plate well. After 30 min, absorbance at 517 nm was measured, percentages of inhibition were calculated using the negative control and for selected compounds the IC50 values were obtained from the inhibition curves.

rat liver microsomes = assay: Inhibition of microsomal lipid peroxidation induced by tert-butyl hydroperoxide (TBARS); type: biochemical; conditions: for IC50: rat liver microsomes, 1 mM tert-butyl hydroperoxide, TBARS
Description: Microsomes were prepared from rat liver homogenate as described previously and resuspended in 50 mM Tris-HCl buffer with 100 mM KCl and 0.1 mM EDTA (pH 7.4). The protein concentration in the stock microsomal suspension was determined using the Bradford method to be typically ca 30 mg protein/mL. This stock suspension was stored at −80 °C and diluted to 0.625 mg protein/mL using PBS before use. 0.4 mL of the diluted microsomal suspension was then mixed with the compounds tested (final concentration 10–200 µM in 0.01 mL DMSO) and incubated for 10 min at 37 °C. tert-Butyl hydroperoxide (0.09 mL in PBS; final concentration 1 mM) was then added and the mixture was incubated at 37 °C for 30 min. The products of lipid peroxidation were determined as thiobarbituric acid reactive substances (TBARS): 0.7 mL of […] were added, the mixture was heated (90 °C; 30 min), cooled, centrifuged (10 min; 10,000 rpm; 4 °C) and the absorbance of the supernatant at 535 nm measured. The activity was calculated as the concentration of the tested compound that inhibited the color reaction with thiobarbiturate (without the tested compound) by 50% (IC50).

[2] = test system: human umbilical vein endothelial cells (HUVEC); assay: Cytotoxicity, MTT test, HUVEC; type: cell-based; conditions: 24 h incubation, read-out: IC50 viability (MTT-reducing ability) HUVEC
Description: (§1) All the cells were cultured in a humidified atmosphere with 5% (v/v) CO2 at 37 °C and subcultured before conﬂuence. Human Umbilical Vein Endothelial Cells (HUVEC) were isolated from umbilical cords of healthy non-smoker women (18–35 years) as described previously, cultivated in gelatin-coated flasks in EGM and used in passages 2–6. Primary Normal human Adult epidermal Keratinocytes (NAK) were isolated from normal skin obtained from excessive tissue removed during abdominoplasty or mammoplasty of healthy adult patients as described in [36, 50], cultivated in EpiLife medium with the addition of HKGS. Mouse fibroblasts (BALB/c 3T3 cells) were purchased from the European Collection of Cell Cultures (ECACC, Salisbury, UK) and were grown in DMEM supplemented with heat-inactivated FCS (5%, v/v) and newborn FCS, streptomycin […] and glutamine (4 mM). Hepatocyte carcinoma HepG2 cells (No. 85011430, ECACC) were cultured at 37 °C in DMEM supplemented with 2 mM L-glutamine, 1% non-essential amino acids, 100 U/mL penicillin, […] and 10% fetal bovine serum (Invitrogen, Carlsbad, CA, USA).
(§2) The cells were plated into 96-well cell culture plates and grown to near confluence. The tested compounds were placed in the respective fresh medium in serial dilutions (100 µL/well) and incubated with the cells for 24 h. After incubation, the medium was removed, the cells were washed with PBS, fresh medium containing 1 mg/mL of MTT was added and the plates were incubated for a further 3 h (37 °C). The resulting formazan was dissolved in 50 µL of 1% NH3 in DMSO, absorbance was read at 540 nm and IC50 values were obtained graphically from the dependence of cell viability on the concentration of the tested compound.

[3] = test system: normal human adult epidermal keratinocytes (NAK); assay: Cytotoxicity, MTT test, NAK; type: cell-based; conditions: Keratinocyte, 24 h incubation, read-out: IC50 viability (MTT-reducing ability) NAK
Description: as §1, §2

[4] = test system: mouse fibroblasts (BALB/c 3T3); assay: Cytotoxicity, MTT test, BALB/c 3T3; type: cell-based; conditions: BALB/c3T3, 24 h incubation, read-out: IC50 viability (MTT-reducing ability) BALB/c 3T3
Description: as §1, §2

HepG2 cells = assay: Cytotoxicity, MTT test, HepG2; type: cell-based; conditions: Homo sapiens, 24 h incubation, read-out: IC50 viability (MTT-reducing ability) HepG2
Description: as §1, §2

[5] = Cytotoxicity, MTT test, range over all cells other than NAK; type: cell-based; conditions: human (HUVEC, HepG2) and mouse (BALB/c 3T3), all cells used other than NAK (HUVEC, BALB/c 3T3, HepG2), read-out: Cytotoxicity IC50, range over cell types
Description: as §1, §2

[6] = Square wave voltammetry (in situ / ex situ) at pyrolytic graphite electrode; type: physicochemical; conditions: for Oxidation potential Ep1 / Oxidation potential Ep2: SWV, vs. Ag/AgCl/3 M KCl, pH 7.4, n = 3; for Oxidation potential Ep1: ascribed to oxidation of C-20 OH; for Oxidation potential Ep2: oxidation of resorcinol moiety (ring A); for Adsorption onto the electrode: ex situ (adsorptive transfer) SWV, open circuit potential
Description: The monomeric flavonolignans and their dimers were analyzed using in situ voltammetry with the working electrode (PGE: pyrolytic graphite electrode) dipped in the supporting electrolyte containing the analytes and/or ex situ voltammetric analysis (adsorptive transfer, AdT technique). For this purpose, the PGE was first dipped into a 5 µL aliquot of the studied sample. After an accumulation period (30 s), the electrode was washed with deionized water and placed in an electrochemical cell containing pure supporting electrolyte. Square-wave voltammetry (SWV) and cyclic voltammetry (CV) were performed at room temperature with a µAutolab III analyzer (EcoChemie, Utrecht, The Netherlands) in a three-electrode setup (Ag/AgCl 3M KCl electrode as a reference and a platinum wire as the auxiliary electrode). SWV parameters: frequency: 200 Hz, from 0 V to +1.5 V, concentration of tested compounds (50 µM), supporting electrolyte: Britton-Robinson buffer, pH 7.4. The flavonolignans analyzed were dissolved in methanol as a stock solution of 1 mg mL^−1 (stored in a fridge in the dark), and diluted with the supporting electrolyte and/or 0.2 M acetate buffer (pH 5) for in situ and/or ex situ voltammetry. Ex situ a.c. voltammetry (out-of-phase) was carried out with a hanging mercury drop electrode (HMDE) according to the previously published paper. In this case, the flavonolignans (50 µM) were adsorbed from 0.2 M acetate buffer (pH 5) for 30 s. For current responses and potentials (Ep), the standard deviations (S.D.) were less than ±3.55% and ±3 mV for all experiments, respectively.

Row | SMILES | IC50 [1] | IC50 (rat liver microsomes) | Oxidation potential Ep1 [6] | Oxidation potential Ep2 [6] | Activity relative to the parent molecule 1a, microsomal lipid peroxidation (rat liver microsomes; stated jointly for DPPH scavenging and microsomal lipid peroxidation tests) | DPPH [% of inhibition] [1] | IC50 [2] | IC50 [3] | IC50 [4] | IC50 (HepG2 cells) | IC50 at 24 h [5] | Adsorption onto the electrode [6] | DPPH [% of inhibition] ([1]; 33 µM)
1 | COc1cc(C2Oc3cc(-c4oc5cc(O)cc(O)c5c(=O)c4O)ccc3OC2COC(=O)CCCCCCCCCCC(=O)OCC2Oc3ccc(-c4oc5cc(O)cc(O)c5c(=O)c4O)cc3OC2c2ccc(O)c(OC)c2)ccc1O (centres unmarked) [Compound 7, bis((3-(4-Hydroxy-3-methoxyphenyl)-6-(3,5,7-trihydroxy-4-oxo-4H-chromen-2-yl)-2,3-dihydrobenzo-[b][1,4]dioxin-2-yl)methyl) dodecanedioate] | 29 ± 0.7 µM | 59.2 ± 5.9 µM | 0.57 V | 0.99 V |  | 33.4 ± 3.1 ^c % | 98.4 ± 10.6 µM | > 200 µM | 161 ± 9 µM | 172 ± 11.6 µM | 99 to 173 µM | strictly limited and practically impossible | 
2 | COc1cc([C@H]2Oc3cc([C@H]4Oc5cc(OCc6ccc(COc7cc(O)c8c(c7)O[C@H](c7ccc9c(c7)O[C@H](c7ccc(O)c(OC)c7)[C@@H](CO)O9)[C@@H](O)C8=O)cc6)cc(O)c5C(=O)[C@@H]4O)ccc3O[C@@H]2CO)ccc1O [Compound 8, (2R,2'R,3R,3'R)-7,7'-((1,4-Phenylenebis(methylene))bis(oxy))bis(3,5-dihydroxy-2-((2R,3R)-3-(4-hydroxy-3-methoxyphenyl)-2-(hydroxymethyl)-2,3-dihydrobenzo[b][1,4]dioxin-6-yl)chroman-4-one)] |  |  | 0.56 V | 0.81 V |  | 8.5 ± 3.7 ^a % |  |  |  |  |  |  | 
3 | COc1cc([C@@H]2Oc3cc([C@H]4Oc5cc(OCc6ccc(COc7cc(O)c8c(c7)O[C@H](c7ccc9c(c7)O[C@@H](c7ccc(O)c(OC)c7)[C@H](CO)O9)[C@@H](O)C8=O)cc6)cc(O)c5C(=O)[C@@H]4O)ccc3O[C@H]2CO)ccc1O [Compound 9, (2R,2'R,3R,3'R)-7,7'-((1,4-Phenylenebis(methylene))bis(oxy))bis(3,5-dihydroxy-2-((2S,3S)-3-(4-hydroxy-3-methoxyphenyl)-2-(hydroxymethyl)-2,3-dihydrobenzo[b][1,4]dioxin-6-yl)chroman-4-one)] |  |  | 0.57 V | 0.83 V |  | 8.9 ± 4.0 ^a % |  |  |  |  |  |  | 
4 | COc1cc(C2Oc3cc([C@H]4Oc5cc(OCc6ccc(COc7cc(O)c8c(c7)O[C@H](c7ccc9c(c7)OC(c7ccc(O)c(OC)c7)C(CO)O9)[C@@H](O)C8=O)cc6)cc(O)c5C(=O)[C@@H]4O)ccc3OC2CO)ccc1O (stereo partly drawn) [Compound 10, (2R,2'R,3R,3'R)-7,7'-((1,4-Phenylenebis(methylene))bis(oxy))bis(3,5-dihydroxy-2-(3-(4-hydroxy-3-methoxyphenyl)-2-(hydroxymethyl)-2,3-dihydrobenzo[b][1,4]dioxin-6-yl)chroman-4-one)] |  |  | 0.56 V | 0.80 V |  | 8.1 ± 3.4 ^a % |  |  |  |  |  |  | 
5 | COc1cc(C2Oc3cc([C@H]4Oc5cc(OCc6cccc(COc7cc(O)c8c(c7)O[C@H](c7ccc9c(c7)OC(c7ccc(O)c(OC)c7)C(CO)O9)[C@@H](O)C8=O)c6)cc(O)c5C(=O)[C@@H]4O)ccc3OC2CO)ccc1O (stereo partly drawn) [Compound 11, (2R,2'R,3R,3'R)-7,7'-((1,3-Phenylenebis(methylene))bis(oxy))bis(3,5-dihydroxy-2-(3-(4-hydroxy-3-methoxyphenyl)-2-(hydroxymethyl)-2,3-dihydrobenzo[b][1,4]dioxin-6-yl)chroman-4-one)] |  |  | 0.52 V | 0.87 V |  | 10.7 ± 3.1 ^a % |  |  |  |  |  |  | 

The next lines start with results.

Row | IC50 [1] | IC50 (rat liver microsomes) | Oxidation potential Ep1 [6] | Oxidation potential Ep2 [6] | Activity relative to the parent molecule 1a, microsomal lipid peroxidation (rat liver microsomes; stated jointly for DPPH scavenging and microsomal lipid peroxidation tests) | SMILES | DPPH [% of inhibition] [1] | IC50 [2] | IC50 [3] | IC50 [4] | IC50 (HepG2 cells) | IC50 at 24 h [5] | Adsorption onto the electrode [6] | DPPH [% of inhibition] ([1]; 33 µM)
6 | 225 ± 9.4 µM | 53.7 ± 6.1 µM |  |  |  | COc1cc([C@H]2Oc3cc([C@H]4Oc5cc(O)cc(O)c5C(=O)[C@@H]4O)ccc3O[C@@H]2CO)ccc1O [Compound 1a, silybin A] | 6.6 ± 1.7 ^a % | 57.8 ± 3.6 µM | > 200 µM | 131 ± 8 µM | 165 ± 8.1 µM | 60 to 166 µM |  | 
7 | 137 ± 7.5 µM | 34 ± 4.3 µM | 0.56 V | 0.83 V | approximately 1.6 times | COc1cc([C@H]2Oc3cc([C@H]4Oc5cc(O)cc(O)c5C(=O)[C@@H]4O)ccc3O[C@@H]2COC(=O)CCCCCCCCCCC(=O)OC[C@H]2Oc3ccc([C@H]4Oc5cc(O)cc(O)c5C(=O)[C@@H]4O)cc3O[C@@H]2c2ccc(O)c(OC)c2)ccc1O [Compound 3, bis(((2R,3R)-3-(4-Hydroxy-3-methoxyphenyl)-6-((2R,3R)-3,5,7-trihydroxy-4-oxochroman-2-yl)-2,3-dihydrobenzo[b][1,4]dioxin-2-yl)methyl) dodecanedioate] | 7.1 ± 2.8 ^a % | 7.6 ± 1.9 µM | > 200 µM | 23.5 ± 5.6 µM | 51.8 ± 5.9 µM | 8 to 44 µM | strictly limited and practically impossible | 
8 | 6.43 ± 0.3 µM | 14.5 ± 0.73 µM | 0.54 V | 0.92 V |  | COc1cc(C2Oc3cc(-c4oc5cc(O)cc(O)c5c(=O)c4O)ccc3OC2CO)ccc1O (centres unmarked) [Compound 6, 2,3-Dehydrosilybin] |  | 20.9 ± 4.6 µM | > 200 µM | 11.9 ± 3 µM | 58.4 ± 9 µM | 12 to 59 µM |  | 83% and 82.9 ± 0.2 ^b %
